US4868204A, “Mycalamide compounds, compositions thereof and methods of preparation and use” (Harbor Branch Oceanographic Institution, Inc., priority 1988, dated 1989)
Like-named read-outs stand apart in the source and are kept apart here.

How the values were obtained:
[1] = system: BSC cells
[2] = system: P388 mouse leukemia cell; assay: in vitro P388 mouse leukemia cell assay; format: cell-based; details: 50% inhibition of cell replication vs untreated cultures
Method: Antitumor effectiveness of the compounds of the invention was evaluated using a standardized in vitro P388 mouse leukemia cell assay protocol disclosed in U.S. Pat. No. 4,731,366 with the antitumor activity being expressed in IC50 (concentration that results in 50% inhibition of cell replication normalized to untreated cultures) determined with a log-log transform of data and expressed as xx ng/ml. As an example, for mycalamide A the P388 assay value was […]

[3] = system: polio vaccine virus Type I (PVI); format: cell-based
[4] = system: HSV; format: cell-based, Herpes simplex type 1 virus
[5] = system: B16 murine melanoma; assay: in vivo B16 murine melanoma assay
Method: (§1) Antitumor effectiveness of mycalamide A was also evaluated using a standardized in vivo procedure by injecting mice with the test material starting 24 hours after P338 tumor implantation. A T/C value is calculated using the formula % T/C=Median survival of test group/Median survival of control group×100%, A T/C value above 130% is considered significant.
In vivo antitumor activity of mycalamide A was also tested with an B16 murine melanoma assay resulting in the following data: […]

[6] = system: mice; details: mouse, in vivo
[7] = system: A59; set-up: species or system mice; details: mouse, in vivo, 0.1 mg/kg
[8] = system: P338 tumor; assay: in vivo P388 tumor procedure in mice (% T/C)
Method: as §1

[9] = system: antimitotic activity; details: British Pat. Nos. 1,078,049 and 932,875; cited from earlier work

## COC(CO)CC1OC2C(NC(=O)C(O)C3(O)CC(C)C(C)C(C)O3)OCOC2C(OC)C1(C)C (stereo not drawn) [Example 26, 4α Dihydro pseudomycalamide B]
[1]
  AV assay, cytotoxicity: -
[2]
  P388 IC50: 3 ng/mL
[3]
  AV assay, PVI: 4+ and -
[4]
  AV assay, HSV: 4+ and -

## C=C1CC(O)(C(O)C(=O)NC2OCOC3C2OC(CC(O)CO)C(C)(C)C3OC)OC(C)C1C (stereo not drawn) [Example 28, Pseudomycalamide A]
[2]
  P388 IC50: 23 ng/mL
[3]
  AV assay, PVI: 4+
[4]
  AV assay, HSV: 4+

## COC1C2OCOC(NC(=O)C(O)C3(O)CC(C)C(C)C(C)O3)C2OC(CC(O)CO)C1(C)C (stereo not drawn) [Example 23, 4β-dihydro pseudomycalamide A]
[2]
  P388 IC50: 4.2 ng/mL
[3]
  AV assay, PVI: 4+
[4]
  AV assay, HSV: 4+

## COC1C2OCOC(NC(=O)C(OC(=O)c3ccc(Br)cc3)=C3C=C(C)C(C)C(C)O3)C2OC(CC(O)COC(=O)c2ccc(Br)cc2)C1(C)C (single isomer, unassigned) [Example 13, Neomycalamide A 7,18-di-p-bromobenzoate]
[1]
  AV assay, cytotoxicity: -
[2]
  P388 IC50: 572.5 ng/mL
[3]
  AV assay, PVI: 4+ and -
[4]
  AV assay, HSV: 4+ and -

## C=C1C[C@](OC)([C@H](O)C(=O)N[C@H]2OCO[C@H]3[C@@H]2O[C@H](C[C@@H](CO)OC)C(C)(C)[C@@H]3OC)O[C@H](C)[C@@H]1C [Example 2, Mycalamide B]
[1]
  AV assay, cytotoxicity: -
[2]
  P388 IC50: 0.26 ng/mL
[3]
  AV assay, PVI: 4+ and -
[4]
  AV assay, HSV: 4+ and -

## C=C1CC(OC)(C(OC(C)=O)C(=O)NC2OCOC3C2OC(CC(COC(C)=O)OC(C)=O)C(C)(C)C3OC)OC(C)C1C (stereo not drawn) [Example 7, Mycalamide A Triacetate]
[1]
  AV assay, cytotoxicity: -
[2]
  P388 IC50: 51.9 ng/mL

## C=C1CC(OC)(C(OC(=O)c2ccc(Br)cc2)C(=O)NC2OCOC3C2OC(CC(O)CO)C(C)(C)C3OC)OC(C)C1C (stereo not drawn) [Example 10, Mycalamide A 7-mono-p-bromobenzoate]
[2]
  P388 IC50: 23.3 ng/mL
[3]
  AV assay, PVI: 4+
[4]
  AV assay, HSV: 4+

## C=C1CC(OC)(C(OC(=O)c2ccc(Br)cc2)C(=O)NC2OCOC3C2OC(CC(O)COC(=O)c2ccc(Br)cc2)C(C)(C)C3OC)OC(C)C1C (stereo not drawn) [Example 12, Mycalamide A 7,18-di-p-bromobenzoate]
[2]
  P388 IC50: 141.2 ng/mL
[3]
  AV assay, PVI: 4+

## C=C1CC(OC)(C(O[Si](C)(C)C)C(=O)NC2OCOC3C2OC(CC(CO[Si](C)(C)C)OC)C(C)(C)C3OC)OC(C)C1C (stereo not drawn) [Example 18, Mycalamide B bis-trimethylsilylether]
[2]
  P388 IC50: 0.19 ng/mL

## C=C1CC(O)(C(O)C(=O)NC2OCOC3C2OC(CC(CO)OC)C(C)(C)C3OC)OC(C)C1C (stereo not drawn) [Example 27, Pseudomycalamide B]
[1]
  AV assay, cytotoxicity: -
[2]
  P388 IC50: 1.8 ng/mL
[3]
  AV assay, PVI: 4+ and -
[4]
  AV assay, HSV: 4+ and -

## C=C1C[C@](OC)([C@H](O)C(=O)N[C@H]2OCO[C@H]3[C@@H]2O[C@H](C[C@H](O)CO)C(C)(C)[C@@H]3OC)O[C@H](C)[C@@H]1C [mycalamide A, Mycalamide A]
[2]
  P388 IC50: 1.6 ng/mL
[5]; 0.0625 mg/kg
  Cures: 0
  Median T/C %: 197%
[5]; 0.125 mg/kg
  Cures: 0
  Median T/C %: 189%
[5]; 0.5 mg/kg
  Cures: 0
  Median T/C %: Toxic
[6]; 0.01 mg/kg, 48 h
  Cumulative mortality: 0%
[6]; 0.01 mg/kg, 96 h
  Cumulative mortality: 0%
[6]; 0.01 mg/kg, 144 h
  Cumulative mortality: 0%
[6]; 0.01 mg/kg, 192 h
  Cumulative mortality: 0%
[6]; 0.01 mg/kg, 240 h
  Cumulative mortality: 0%
[6]; 0.01 mg/kg, 288 h
  Cumulative mortality: 0%
[6]; 0.01 mg/kg, 336 h
  Cumulative mortality: 0%
[6]; 0.1 mg/kg, 48 h
  Cumulative mortality: 0%
[6]; 0.1 mg/kg, 96 h
  Cumulative mortality: 0%
[6]; 0.1 mg/kg, 144 h
  Cumulative mortality: 0%
[6]; 0.1 mg/kg, 192 h
  Cumulative mortality: 0%
[6]; 0.1 mg/kg, 240 h
  Cumulative mortality: 0%
[6]; 0.1 mg/kg, 288 h
  Cumulative mortality: 0%
[6]; 0.1 mg/kg, 336 h
  Cumulative mortality: 0%
[6]; 1 mg/kg, 48 h
  Cumulative mortality: 0%
[6]; 1 mg/kg, 96 h
  Cumulative mortality: 0%
[6]; 1 mg/kg, 144 h
  Cumulative mortality: 100%
[6]; 1 mg/kg, 192 h
  Cumulative mortality: 100%
[6]; 1 mg/kg, 240 h
  Cumulative mortality: 100%
[6]; 1 mg/kg, 288 h
  Cumulative mortality: 100%
[6]; 1 mg/kg, 336 h
  Cumulative mortality: 100%
[7]
  Cumulative mortality: 0%
[8]; 0.0012 mg/kg, 2nd series
  Median T/C %: 117%
[8]; 0.0025 mg/kg, 1st series
  Median T/C %: 137%
[8]; 0.0025 mg/kg, 2nd series
  Median T/C %: 122%
[8]; 0.005 mg/kg, 1st series
  Median T/C %: 132%
[8]; 0.005 mg/kg, 2nd series
  Median T/C %: 133%
[8]; 0.01 mg/kg, 1st series
  Median T/C %: 116%
[8]; 0.01 mg/kg, 2nd series
  Median T/C %: 156%
[8]; 0.02 mg/kg, 1st series
  Median T/C %: Toxic
[8]; 0.02 mg/kg, 2nd series
  Median T/C %: 106%

## C=C1CC(OC)(C(OC(=O)CC)C(=O)NC2OCOC3C2OC(CC(COC(=O)CC)OC(=O)CC)C(C)(C)C3OC)OC(C)C1C (stereo not drawn) [Example 8, Mycalamide A Tripropanoate]
[1]
  AV assay, cytotoxicity: -
[2]
  P388 IC50: 85.6 ng/mL
[3]
  AV assay, PVI: 4+ and -

## C=C1CC(OC)(C(O)C(=O)NC2OCOC3C2OC(CC(O)CO[Si](C)(C)C(C)(C)C)C(C)(C)C3OC)OC(C)C1C (stereo not drawn) [Example 16, Mycalamide A 18-mono-t-butyl,dimethylsilylether]
[1]
  AV assay, cytotoxicity: -
[2]
  P388 IC50: 28.5 ng/mL
[3]
  AV assay, PVI: 4+ and -
[4]
  AV assay, HSV: 4+ and -

## C=C1CC(OC)(C(O)C(=O)NC2OCOC3C2OC(CC(CO[Si](C)(C)C)OC)C(C)(C)C3OC)OC(C)C1C (stereo not drawn) [Example 17, Mycalamide B 18-mono-trimethylsilylether]
[1]
  AV assay, cytotoxicity: -
[2]
  P388 IC50: 0.08 ng/mL
[3]
  AV assay, PVI: 4+ and -
[4]
  AV assay, HSV: 4+ and -

## COC(CO)CC1OC2C(NC(=O)C(O)C3(OC)CC(C)C(C)C(C)O3)OCOC2C(OC)C1(C)C (stereo not drawn) [Example 24, 4β-Dihydro mycalamide B]
[2]
  P388 IC50: 0.14 ng/mL
[3]
  AV assay, PVI: 4+

## C=C1CC(OC)(C(O[Si](C)(C)C)C(=O)NC2OCOC3C2OC(CC(CO[Si](C)(C)C)O[Si](C)(C)C)C(C)(C)C3OC)OC(C)C1C (stereo not drawn) [Example 15, Mycalamide A tris-trimethylsilylether]
[1]
  AV assay, cytotoxicity: -
[2]
  P388 IC50: 1.3 ng/mL
[3]
  AV assay, PVI: 4+ and -
[4]
  AV assay, HSV: 4+ and -

## C=C1CC(OC)(C(O)C(=O)NC2OCOC3C2OC(CC(CO[Si](C)(C)C)O[Si](C)(C)C)C(C)(C)C3OC)OC(C)C1C (stereo not drawn) [Example 14, Mycalamide A 17,18-bis-trimethylsilylether]
[2]
  P388 IC50: 1.2 ng/mL
[3]
  AV assay, PVI: 4+
[4]
  AV assay, HSV: 4+

## C=C1CC(OC)(C(OC(C)=O)C(=O)NC2OCOC3C2OC(CC(COC(C)=O)OC)C(C)(C)C3OC)OC(C)C1C (stereo not drawn) [Example 9, Mycalamide B Diacetate]
[1]
  AV assay, cytotoxicity: -
[2]
  P388 IC50: 15.3 ng/mL
[3]
  AV assay, PVI: 4+ and -
[4]
  AV assay, HSV: 4+ and -

## C=C1C[C@](OC)([C@H](O)C(=O)N[C@@H](OC)[C@@H]2C[C@@H](O)C(C)(C)[C@@H](C[C@@H](COC)OC)O2)O[C@H](C)[C@@H]1C [Pederin, pederin]
[9]
  antimitotic activity: shows antimitotic activity

## COC1C2OCOC(NC(=O)C(O)C3(OC)CC4(CO4)C(C)C(C)O3)C2OC(CC(O)CO)C1(C)C (stereo not drawn) [Example 3, Mycalamide A 4 γ-epoxide]
[2]
  P388 IC50: 34 ng/mL

## COC1C2OCOC(NC(=O)C(O)C3(OC)CC(C)C(C)C(C)O3)C2OC(CC(O)CO)C1(C)C (stereo not drawn) [Example 19, 4α-Dihydro mycalamide A]
[2]
  P388 IC50: 2.3 ng/mL
[4]
  AV assay, HSV: 4+ and -

## C=C1CC(OC)(C(O)C(=O)NC2OCOC3C2OC(CC(O)COC(=O)c2ccc(Br)cc2)C(C)(C)C3OC)OC(C)C1C (stereo not drawn) [Example 11, Mycalamide A 18-mono-p-bromobenzoate]
[1]
  AV assay, cytotoxicity: -
[2]
  P388 IC50: 1.28 ng/mL
[3]
  AV assay, PVI: 4+ and -

## COC1C2OCOC(NC(=O)C(O)C3(O)CC(C)C(C)C(C)O3)C2OC(CC(O)CO)C1(C)C (stereo not drawn) [Example 20, 4α-dihydro pseudomycalamide A]
[2]
  P388 IC50: 10.5 ng/mL
[4]
  AV assay, HSV: 4+

## COC1C2OCOC(NC(=O)C(O)C3(OC)CC(C)C(C)C(C)O3)C2OC(CC(O)CO)C1(C)C (stereo not drawn) [Example 22, 4β-dihydro mycalamide A]
[1]
  AV assay, cytotoxicity: -
[2]
  P388 IC50: 0.8 ng·mL

## COC1C2OCOC(NC(=O)C(O)C3(OC)CC4(CO4)C(C)C(C)O3)C2OC(CC(O)CO)C1(C)C (stereo not drawn) [Example 4, Mycalamide A 4β-epoxide]
[2]
  P388 IC50: 14.9 ng/mL
[4]
  AV assay, HSV: 4+
